In patent US11491173B2, “Pharmaceutical composition and application thereof” (priority 2018, dated 2022):
Where “and” joins values, the source holds several entries; their conditions need not be identical. Equal entries are not always repeated.

Experiments:
[1] = test system: H9c2 cardiomyocyte damage induced by hypoxia; assay: Hypoxia-induced H9c2 cardiomyocyte damage, mitochondrial function (MitoTracker Deep Red FM, high-content imaging); format: cell-based; settings: for mitochondrial function (Table 9): individual replicates N1-N3
Procedure: (§1) 2. Experimental methods: QSYQ-1 and QSYQ-2, and each active ingredient group were ultrasonically dissolved and prepared into a 0.4 mg/mL of stock solution with DMSO. When in vitro activity evaluation was performed, the above groups were diluted with the same amount of experimental medium respectively.
(§2) The cells were collected at the logarithmic growth phase and added to a 96-well culture plate with a black transparent bottom at a concentration of 5000 cells per well and a volume of 100 μL per well. The cells were incubated in an incubator with 5% CO2 at 37° C. for 24 hours. Subsequently, the tested groups were added to the experimental groups respectively, incubated for 24 hours, and then placed in a hypoxic chamber passing a mixed gas composed of 95% nitrogen and 5% CO2 at a flow rate of 15 L/min for 10 mins, and incubated for another 8 hours after inducing hypoxia damage at 37° C. The model group was only incubated for 8 hours under hypoxia, and the blank control group was incubated normally.
(§3) The labeling operation of cell fluorescent probe was as follows: the mother liquor of fluorescent probe Hoechst 33342 was diluted 1000-fold into a DMEM basic medium; then the mother liquor of MitoTracker Deep Red FM was diluted 10000-fold into a culture medium containing Hoechst 33342 to serve as a “cocktail” stain. The medium in the culture plate was discarded and replaced with the “cocktail” stain, 50 μL per well, and incubated in an incubator away from light for 30 mins. The plate was taken out away from light, and washed with DMEM (high glucose) for 3 times and 5 minutes each time. Live cell imaging was performed subsequently.
(§4) The operation of live cell imaging with HCS was as follows: an excitation light of 360-400 and an emission light of 410-480 were selected for the imaging of Hoechst 33342-labeled nuclei; an excitation light of 620-640 and an emission light of 650-760 were selected for the imaging of MitoTracker Deep Red FM-labeled mitochondria. Harmony 3.0 software was applied to analyze the HCS imaging and read the fluorescence intensities of the nucleus/cytoplasm. The HCS screening system combined the automatic fluorescence microscopy imaging functions, and can perform a high-throughput multi-index analysis. Columbus high-efficiency image and data management and analysis system were applied to perform a secondary analysis and management of the image and data, and draw the dosage-dependent curve relationship.

[2] = test system: H9c2 cardiomyocyte damage induced by hypoxia; assay: Hypoxia-induced H9c2 cardiomyocyte damage, nucleus number (Hoechst 33342, high-content imaging); format: cell-based; settings: for nucleus number (Table 7): individual replicates N1-N3, 0.4 mg/mL DMSO stock diluted with medium
Procedure: as §1, §2, §3, §4

[3] = mean of N1-N3, 24 h pre-incubation, then hypoxia 8 h
[4] = 24 h pre-incubation, then hypoxia 8 h

| Compound | mitochondrial function, Mean (Table 9) [1, 3] | nucleus number, Mean (Table 7) [2, 3] | mitochondrial function (Table 9) [1, 4] | nucleus number (Table 7) [2, 4] | further results |
| --- | --- | --- | --- | --- | --- |
| COc1ccc(-c2coc3cc(O)ccc3c2=O)cc1O [Calycosin, calycosin] | 905.6 | 386.0 |  |  |  |
| COc1ccc(-c2coc3cc(O[C@@H]4O[C@H](CO)[C@@H](O)[C@H](O)[C@H]4O)ccc3c2=O)cc1O [Calycosin-7-glucoside, calycosin-7-glucoside] | 902.3 | 333.7 | 967.77 and 861.05 and 877.99 | 312 and 366 and 323 |  |
| C[C@H]1COC2=C1C(=O)C(=O)c1c2ccc2c1CCCC2(C)C [Cryptotanshinone, cryptotanshinone] | 853.8 | 349.0 |  |  |  |
| O=C(O)[C@H](O)Cc1ccc(O)c(O)c1 [Danshensu] | 879.0 | 346.3 | 909.24 and 845.81 and 882.04 | 326 and 371 and 342 |  |
| Cc1cccc2c3c(ccc12)C1=C(C(=O)C3=O)[C@@H](C)CO1 [Dihydrotanshinone I, dihydrotanshinone I] | 887.3 | 339.7 | 930.1 and 918.77 and 813.04 | 303 and 373 and 313 |  |
| COc1ccc(-c2coc3cc(O)ccc3c2=O)cc1 [Formononetin, formononetin] | 863.7 | 376.3 |  |  |  |
| CC(C)=CCC[C@](C)(O[C@@H]1O[C@H](CO[C@@H]2O[C@H](CO)[C@@H](O)[C@H](O)[C@H]2O)[C@@H](O)[C@H](O)[C@H]1O)[C@H]1CC[C@]2(C)[C@@H]1[C@H](O)C[C@@H]1[C@@]3(C)CC[C@H](O[C@@H]4O[C@H](CO)[C@@H](O)[C@H](O)[C@H]4O[C@@H]4O[C@H](CO)[C@@H](O)[C@H](O)[C@H]4O)C(C)(C)[C@@H]3CC[C@]12C [Ginsenoside Rb1, ginsenoside Rb1] | 814.6 | 404.0 | 778.78 and 843.1 and 822.04 | 406 and 420 and 386 |  |
| CC(C)=CCC[C@](C)(O[C@@H]1O[C@H](CO)[C@@H](O)[C@H](O)[C@H]1O)[C@H]1CC[C@]2(C)[C@@H]1[C@H](O)C[C@@H]1[C@@]3(C)CC[C@H](O[C@@H]4O[C@H](CO)[C@@H](O)[C@H](O)[C@H]4O[C@@H]4O[C@H](CO)[C@@H](O)[C@H](O)[C@H]4O)C(C)(C)[C@@H]3CC[C@]12C [Ginsenoside Rd, ginsenoside Rd] |  |  |  |  | mitochondrial function, Mean (Table 9) ([1]; 8 h): 820.9; nucleus number, Mean (Table 7) ([2]; 8 h): 408.0 |
| CC(C)=CCC[C@](C)(O[C@@H]1O[C@H](CO)[C@@H](O)[C@H](O)[C@H]1O)[C@H]1CC[C@]2(C)[C@@H]1[C@H](O)C[C@@H]1[C@@]3(C)CC[C@H](O)C(C)(C)[C@@H]3[C@@H](O[C@@H]3O[C@H](CO)[C@@H](O)[C@H](O)[C@H]3O)C[C@]12C [Ginsenoside Rg1, ginsenoside Rg1] | 905.5 | 308.0 | 843.46 and 918.73 and 954.27 | 264 and 310 and 350 |  |
| O=C(/C=C/c1ccc(O)c2c1C=Cc1cc(O)c(O)cc1O2)O[C@H](Cc1ccc(O)c(O)c1)C(=O)O [Isosalvianolic acid C, isosalvianolic acid C] | 772.6 | 304.0 | 766.96 and 812.08 and 738.89 | 293 (2×) and 326 |  |
| O=C(/C=C/c1ccc(O)c2c1[C@H](C(=O)O)[C@@H](c1ccc(O)c(O)c1)O2)O[C@H](Cc1ccc(O)c(O)c1)C(=O)O [Lithospermic acid, lithospermic acid] | 811.6 | 356.0 |  |  |  |
| CC(C)=CCC[C@](C)(O[C@@H]1O[C@H](CO)[C@@H](O)[C@H](O)[C@H]1O)[C@H]1CC[C@]2(C)[C@@H]1[C@H](O)C[C@@H]1[C@@]3(C)CC[C@H](O)C(C)(C)[C@@H]3[C@@H](O[C@@H]3O[C@H](CO)[C@@H](O)[C@H](O)[C@H]3O[C@@H]3OC[C@@H](O)[C@H](O)[C@H]3O)C[C@]12C [Notoginsenoside R1, notoginsenoside R1] | 925.9 | 366.0 |  | 360 and 383 and 355 | mitochondrial function (Table 9) ([1]; 24 h pre-incubation, then hypoxia 8 h, listed as Notoainsenoside R1): 841.9 and 950.39 and 985.33 |
| COc1ccc(-c2coc3cc(O[C@@H]4O[C@H](CO)[C@@H](O)[C@H](O)[C@H]4O)ccc3c2=O)cc1 [Ononin, ononin] | 695.0 | 366.0 |  |  |  |
| O=Cc1ccc(O)c(O)c1 [Protocatechuic aldehyde, protocatechuic aldehyde] | 909.7 | 336.3 | 946.04 and 881.05 and 901.89 | 361 and 345 and 303 |  |
| O=C(/C=C/c1ccc(O)c(O)c1)O[C@H](Cc1ccc(O)c(O)c1)C(=O)O [Rosmarinic acid, rosmarinic acid] | 790.6 | 345.3 |  |  |  |
| O=C(/C=C/c1ccc(O)c(O)c1/C=C/c1ccc(O)c(O)c1)O[C@H](Cc1ccc(O)c(O)c1)C(=O)O [Salvianolic acid A, salvianolic acid A] | 905.1 | 268.3 |  | 264 and 287 and 254 | mitochondrial function (Table 9) ([1]; 24 h pre-incubation, then hypoxia 8 h, listed as Saivianolic acid A): 914.19 and 859.26 and 941.93 |
| O=C(/C=C/c1ccc(O)c2c1[C@H](C(=O)O[C@H](Cc1ccc(O)c(O)c1)C(=O)O)[C@@H](c1ccc(O)c(O)c1)O2)O[C@H](Cc1ccc(O)c(O)c1)C(=O)O [Salvianolic acid B, salvianolic acid B] | 855.2 | 394.7 | 801.62 and 853.39 and 910.53 | 385 and 364 and 435 |  |
| O=C(O)Cc1c(/C=C/C(=O)O[C@H](Cc2ccc(O)c(O)c2)C(=O)O)ccc(O)c1O [Salvianolic acid D, salvianolic acid D] | 922.3 | 271.7 | 946.71 and 900.04 and 920.17 | 306 and 236 and 273 |  |
| O=C(O)C1Cc2ccc(O)c3c2C(=Cc2ccc(O)c(O)c2O3)C1=O (centres unmarked) [Salvianolic acid G, salvianolic acid G] | 867.7 | 366.3 |  | 380 and 328 and 391 | mitochondrial function (Table 9) ([1]; 24 h pre-incubation, then hypoxia 8 h, listed as Saivianolic acid G): 870.9 and 831.06 and 901.01 |
| O=C(/C=C/c1ccc(O)c(O)c1/C(=C\c1ccc(O)c(O)c1)C(=O)O)O[C@H](Cc1ccc(O)c(O)c1)C(=O)O [Salvianolic acid T, salvianolic acid T] | 842.6 | 296.0 | 815.14 and 888.53 and 824.27 | 325 and 279 and 284 |  |
| O=C(/C=C/c1ccc(O)c(O)c1/C(=C\c1ccc(O)c(O)c1)C(=O)O)O[C@H](Cc1ccc(O)c(O)c1)C(=O)O [Salvianolic acid U, salvianolic acid U] | 909.3 | 305.3 | 992.37 and 840.14 and 895.53 | 349 and 315 and 252 |  |
| Cc1coc2c1C(=O)C(=O)c1c-2ccc2c(C)cccc12 [Tanshinone I, tanshinone I] | 869.8 | 331.3 | 876.03 and 904.55 and 828.87 | 379 and 315 and 300 |  |
| Cc1coc2c1C(=O)C(=O)c1c-2ccc2c1CCCC2(C)C [Tanshinone IIA, tanshinone IIA] | 695.2 | 393.3 |  |  |  |
| astragaloside [Astragaioside] | 817.5 | 391.3 |  | 374 and 365 and 435 | mitochondrial function (Table 9) ([1]; 24 h pre-incubation, then hypoxia 8 h, listed as Astradaloside): 812.45 and 768.63 and 871.37 |
